In patent US9782516B2, “Tissue adhesive coatings for drug coated balloon” (ABBOTT CARDIOVASCULAR SYSTEMS INC., priority 2013, dated 2017):

What was measured:
[1] = Percent tissue uptake from paclitaxel coated balloon (FIG. 3); type: in vivo; conditions: porcine coronary arteries, day 1 (24 hours)
whole blood = test: Acute thrombogenicity of stents in whole blood via the Chandler Loop (FIG. 5); conditions: drug coated stents in whole blood; compared to zotarolimus
[2] = in vivo
[3] = Drug transfer efficiency of drug coated balloons (Table 1); type: in vivo; conditions: balloon 3 × 12 mm, coronary, 20% overstretch, stent present, inflation 30 s, time point 30 minutes
Experimental: For purpose of explanation, and not limitation, of the disclosed subject matter, reference is now made to a comparative study between paclitaxel and zotarolimus.
(§1) With a stent on a coronary balloon, the percent of dose in the vessel from a pure zotarolimus coated balloon was measured at about 30 minutes, 1 day, and 7 days.

[4] = Percent of dose in the vessel from pure zotarolimus coated coronary balloon with stent (FIG. 2); type: in vivo
Experimental: FIG. 2 is a graph illustrating percent transfer efficiency as a function of time for pure zotarolimus coatings on a zotarolimus coated balloon.
as §1

| SMILES | tissue uptake [1] | acute thrombogenicity as measured by lactate dehydrogenase (LDH) (whole blood) | histology evidence of coating fragments adhering to a vessel wall [2] | Percent transfer efficiency ([3]; dose 104 μg/cm^2) | Percent transfer efficiency ([3]; dose 576 μg/cm^2) | percent drug in tissue over time ([4]; coronary balloon with stent, measured at about 30 minutes, 1 day and 7 days) | tissue uptake ([4]; pure zotarolimus coated coronary balloon with stent, 652 μg dose, day 1 (24 hours)) |
| --- | --- | --- | --- | --- | --- | --- | --- |
| CC(=O)O[C@H]1C(=O)[C@@]2(C)[C@H]([C@H](OC(=O)c3ccccc3)[C@]3(O)C[C@H](OC(=O)[C@H](O)[C@@H](NC(=O)c4ccccc4)c4ccccc4)C(C)=C1C3(C)C)[C@]1(OC(C)=O)CO[C@@H]1C[C@@H]2O [paclitaxel] | about 2% | more thrombogenic |  |  |  |  |  |
| CO[C@H]1C[C@@H]2CC[C@@H](C)[C@@](O)(O2)C(=O)C(=O)N2CCCC[C@H]2C(=O)O[C@H]([C@H](C)C[C@@H]2CC[C@H](n3cnnn3)[C@H](OC)C2)CC(=O)[C@H](C)/C=C(\C)[C@@H](O)[C@@H](OC)C(=O)[C@H](C)C[C@H](C)/C=C/C=C/C=C/1C [Pure Zotarolimus, zotarolimus] |  |  | no apparent histology evidence | 4.7 | 5.2 | rapid decrease in the percent drug in tissue | about 0.56% |
